What all share (assay type): cell-based
Experiment [1] can be described thus: Inhibition of Smo-mediated hedgehog signaling pathway in mouse Light2 cells in Shh conditioned medium after 48 hrs by Gli-Renilla luciferase reporter gene assay. (In a reporter assay the amount or activity of a reporter protein is the signal.)
Experiment [2] in a line: Inhibition of Smo-mediated hedgehog signaling pathway in mouse C3H10T1/2 cells after 6 days by Gli-dependent luciferase reporter gene assay. The conditions noted are these: C3H 10T1/2, 144 h.
Experiment [3] is described as follows: Inhibition of hedgehog signaling pathway in mouse Light2 cells in Shh-N conditioned medium after 24 hrs by dual luciferase reporter gene assay.
A short description of experiment [4]: Inhibition of hedgehog signaling pathway in mouse Light2 cells in Shh conditioned medium assessed as reduction in GLI2 expression by Western blot analysis.
A short description of experiment [5]: Inhibition of hedgehog signaling pathway in mouse Light2 cells in Shh conditioned medium assessed as reduction in GLI1 expression by Western blot analysis.

pIC50: −log10 of the molar value.

The term pIC50 denotes the negative decadic logarithm of the IC50, by convention in mol/L. For the compound `CCC(C)n1ncn(-c2ccc(N3CCN(c4ccc(OCC5COC(Cn6cncn6)(c6ccc(Cl)cc6Cl)O5)cc4)CC3)cc2)c1=O` (stereo not given) [ITRACONAZOLE], the pIC50 in experiment [1] was 6.16. In turn, `Cc1ccc(Cn2ncc3nc(-c4ccc(N5CCN(C(=O)CCc6c[nH]c7ccccc67)CC5)cc4)[nH]c32)cc1` had a pIC50 in experiment [1] of 5.85. Same read-out and setting: then `COc1ccc(/C=C/C(=O)c2cc(OC)c(OC)cc2OC)cc1OC`, with 5.35. With `COc1cc(C(=O)NC(=N)Nc2ccc(C)c(NC(=O)c3ccc(-c4ccccc4)cc3)c2)cc(OC)c1OC`, in experiment [2], the pIC50 is 7.82. Still for that read-out and setting: then `COc1cc(C(=O)NC(=S)Nc2cccc(NC(=O)c3ccccc3)c2)cc(OC)c1OC`, with 6.19. Take `CC[C@H](C)C(=O)O[C@@H](C)[C@]1(O)CC[C@@]2(O)[C@]1(C)[C@H](OC(=O)/C=C/c1ccccc1)C[C@@H]1[C@@]3(C)CC[C@H](O)CC3=CC[C@]12O`: the pIC50 in experiment [3] is 5.54. In experiment [2], `COc1cc(C(=O)NC(=N)Nc2ccc(C)c(NC(=O)c3ccc(CCc4ccccc4)cc3)c2)cc(OC)c1OC` had a pIC50 of 8.55.

On to `C[C@@H]1CC[C@@]2(NC1)O[C@H]1C[C@H]3[C@@H]4CC=C5C[C@@H](O[C@@H]6O[C@H](CO)[C@H](O)[C@H](O[C@@H]7O[C@H](CO)[C@@H](O)[C@H](O)[C@H]7O)[C@H]6O[C@@H]6O[C@@H](C)[C@H](O)[C@@H](O)[C@H]6O)CC[C@]5(C)[C@H]4CC[C@]3(C)[C@H]1[C@@H]2C` [SOLASONINE], for which the pIC50 is 5.64 in experiment [4] and 5.60 in experiment [5]. For the compound `CC[C@@H](C)C(=O)O[C@@H](C)[C@]1(O)CC[C@@]2(O)[C@]1(C)[C@H](OC(=O)/C=C/c1ccccc1)C[C@@H]1[C@@]3(C)CC[C@H](O)CC3=CC[C@]12O`, the pIC50 in experiment [3] is 5.43.

The values are drawn from ChEMBL document CHEMBL4265903, “Current trends in Hedgehog signaling pathway inhibition by small molecules” (Bioorg Med Chem Lett, 2018).
